In patent publication US20070010525A1, “Method and compositions for modulating neuropeptide hormone secretion” (priority 2005, published 2007):

Assays:
[1] = tested on: posterior pituitary glands; test: Oxytocin release from whole posterior pituitary glands (enzyme immunoassay); assay type: cell-based, rats
Description: Posterior pituitary. Experiments were performed on posterior pituitary glands removed from rats of either sex, ranging in age from 1-3 months. Animals were rendered unconscious by inhalation of CO2, and killed by decapitation. Glands were removed rapidly to maintain tissue health, and transferred to physiological saline (in mM: 125 NaCl, 4 KCl, 26 NaHCO3, 1.25 NaH2PO4, 2 CaCl2, 1 MgCl2, 10 glucose) bubbled with 95% O2/5% CO2 (Jackson et al., 1991, Action potential broadening and frequency-dependent facilitation of calcium signals in pituitary nerve terminals. Proc. Roy. Soc. Lond. 88:380-384). For oxytocin release experiments the pituitary was kept intact. For electrophysiological recordings, slices of posterior pituitary were cut at 70 μm with a vibratome and maintained in physiological saline. Oxytocin release. Whole pituitary glands with attached axon bundle were placed in a chamber perfused with oxygenated physiological saline. Perfusion was stopped at ˜15 min intervals during measurements, when the physiological saline was substituted with a solution of a similar composition, but with the addition of 20 mM HEPES and NaHCO3, and NaH2PO4 reduced to zero. The pH was adjusted to 7.3 with NaOH. Basal release was measured after a 5 min waiting period (immediately before the stimulus application). The axon bundle was stimulated via a large-diameter, monopolar extracellular glass electrode. Oxytocin release was evoked by a series of 5 trains of 0.2 msec, 0.2 mA current pulses with a frequency of 25 Hz and a duration of 10 seconds. Trains were applied at 1 min intervals. Evoked release was measured 5 minutes after the end of stimulation by gently mixing the bath with a micropipette and collecting 10-20 μL samples in the vicinity of the tissue. Three separate samples were collected for each measurement (including basal release control). Perfusion of the oxygenated physiological saline was restored immediately after sample collection and sildenafil was added to the bath solution for 30-60 min. Recordings of the sildenafil effect on basal and evoked release were then repeated as described above. To control for possible rundown of release, measurements of sildenafil effects were in some cases substituted by the second control measurements. Oxytocin was measured in collected fluid using the Correlate-EIA enzyme immunoassay kit (Assay Designs, Ann Arbor, Mich.). Oxytocin concentration was inversely proportional to the yellow color generated by the immunoassay and was scanned into the computer using an automated micro plate reader at 405 nm. Actual oxytocin concentration was determined with a standard curve measured for each sample plate.

[2] = tested on: BK channels in pituitary nerve terminals; test: Patch clamp recordings of potassium current in posterior pituitary slices after photolysis of caged cGMP; assay type: cell-based, rats; settings: slices bathed in 15 μM sildenafil, control recovered in about 3 minutes
Description: Posterior pituitary. Experiments were performed on posterior pituitary glands removed from rats of either sex, ranging in age from 1-3 months. Animals were rendered unconscious by inhalation of CO2, and killed by decapitation. Glands were removed rapidly to maintain tissue health, and transferred to physiological saline (in mM: 125 NaCl, 4 KCl, 26 NaHCO3, 1.25 NaH2PO4, 2 CaCl2, 1 MgCl2, 10 glucose) bubbled with 95% O2/5% CO2 (Jackson et al., 1991, Action potential broadening and frequency-dependent facilitation of calcium signals in pituitary nerve terminals. Proc. Roy. Soc. Lond. 88:380-384). For oxytocin release experiments the pituitary was kept intact. For electrophysiological recordings, slices of posterior pituitary were cut at 70 μm with a vibratome and maintained in physiological saline. Electrophysiology. Recordings of K^+ current were made with patch pipettes filled with (in mM) 130 KCl, 10 NaCl, 10 HEPES, 4 Mg-ATP, 0.3 GTP, 5 EGTA, pH 7.3. Individual nerve terminals were identified in an upright DIC microscope, Jackson, 1993. Passive current flow and morphology in the terminal arborizations of the posterior pituitary. J. Neurophysiol. 69, 692-702, and voltage or current clamped with an EPC-7 patch clamp amplifier. […] The component of potassium current corresponding to BK channels (seen at the end of a 200 msec voltage step from −80 to 50 mV) was determined for each pulse. […]

[3] = tested on: pituitary nerve terminal; settings: after 5 or 10 seconds of high frequency stimulation; control ~30%; cited from earlier work
[4] = 7-NI 100 μM with sildenafil 10 μM

**Q.** Which results are given for `O=[N+]([O-])c1cccc2cn[nH]c12` [7-NI, 7-nitorindazol]?
**A.** effect on sildenafil-induced increase in basal oxytocin release [1, 4]: blocked; effect on sildenafil-induced increase in evoked oxytocin release [1, 4]: blocked

**Q.** With `CCCc1nn(C)c2c(=O)[nH]c(-c3cc(S(=O)(=O)N4CCN(C)CC4)ccc3OCC)nc12` [Sildenafil, 5-[2-ethoxy-5-(4-methyl-1-piperazinylsulphonyl)phenyl]-1-methyl-3-n-propyl-1,6-dihydro-7H-pyrazolo [4,3-d]pyrimidin-7-one] as the compound, how does the basal oxytocin release ([1]; sildenafil 10 μM, 30-60 min in bath) read?
**A.** insignificant increase

**Q.** What about the evoked oxytocin release ([1]; sildenafil 10 μM, electrical stimulation of axon bundle) of the same compound?
**A.** large and significant increase

**Q.** And the “recovery of the cGMP-induced increase in potassium current” value [2]?
**A.** greatly slowing the recovery

**Q.** And the “recovery of the cGMP-induced increase in potassium current” value ([2]; listed as sildenafil)?
**A.** failed to recover

**Q.** With `Nc1nc2c(ncn2[C@@H]2O[C@@H]3COP(=O)(O)O[C@H]3[C@H]2O)c(=O)[nH]1` [cGMP] as the compound, how does the “success rate of stimulus pulses evoking action potentials” value [3] read?
**A.** ~60%
